Laboratory results as given in PubChem BioAssay (NCI).
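48-hour exposure; five concentrations; linearly interpolated endpoints. The concentration for full growth arrest is given as TGI.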

How the values were obtained:
Assay in all cases: inhibition of tumour cell growth, NCI panel, 48 h
786-0 renal = tested on: 786-0 renal
A498 renal = tested on: A498 renal
A549 NSCLC = tested on: A549 NSCLC
ACHN renal = tested on: ACHN renal
BT-549 breast = tested on: BT-549 breast
CAKI-1 renal = tested on: CAKI-1 renal
CCRF-CEM leukemia = tested on: CCRF-CEM leukemia
COLO 205 colon = tested on: COLO 205 colon
DU-145 prostate = tested on: DU-145 prostate
EKVX NSCLC = tested on: EKVX NSCLC
HCT-116 colon = tested on: HCT-116 colon
HCT-15 colon = tested on: HCT-15 colon
HL-60(TB) leukemia = tested on: HL-60(TB) leukemia
HOP-62 NSCLC = tested on: HOP-62 NSCLC
HOP-92 NSCLC = tested on: HOP-92 NSCLC
HS 578T breast = tested on: HS 578T breast
HT29 colon = tested on: HT29 colon
IGROV1 ovarian = tested on: IGROV1 ovarian
K-562 leukemia = tested on: K-562 leukemia
KM12 colon = tested on: KM12 colon
LOX IMVI melanoma = tested on: LOX IMVI melanoma
M14 melanoma = tested on: M14 melanoma
MALME-3M melanoma = tested on: MALME-3M melanoma
MCF7 breast = tested on: MCF7 breast
MDA-MB-231 breast = tested on: MDA-MB-231 breast
MDA-MB-435 = tested on: MDA-MB-435
MDA-N = tested on: MDA-N
MOLT-4 leukemia = tested on: MOLT-4 leukemia
NCI-H226 lung = tested on: NCI-H226 lung
NCI-H23 lung = tested on: NCI-H23 lung
NCI-H460 lung = tested on: NCI-H460 lung
NCI-H522 lung = tested on: NCI-H522 lung
NCI/ADR-RES ovarian = tested on: NCI/ADR-RES ovarian
OVCAR-3 ovarian = tested on: OVCAR-3 ovarian
OVCAR-4 ovarian = tested on: OVCAR-4 ovarian
OVCAR-5 ovarian = tested on: OVCAR-5 ovarian
OVCAR-8 ovarian = tested on: OVCAR-8 ovarian
PC-3 prostate = tested on: PC-3 prostate
RPMI-8226 leukemia = tested on: RPMI-8226 leukemia
RXF 393 renal = tested on: RXF 393 renal
SF-268 CNS = tested on: SF-268 CNS
SF-295 CNS = tested on: SF-295 CNS
SF-539 CNS = tested on: SF-539 CNS
SK-MEL-2 melanoma = tested on: SK-MEL-2 melanoma
SK-MEL-28 melanoma = tested on: SK-MEL-28 melanoma
SK-MEL-5 melanoma = tested on: SK-MEL-5 melanoma
SK-OV-3 ovarian = tested on: SK-OV-3 ovarian
SN12C renal = tested on: SN12C renal
SNB-19 CNS = tested on: SNB-19 CNS
SNB-75 CNS = tested on: SNB-75 CNS
SR leukemia = tested on: SR leukemia
SW-620 colon = tested on: SW-620 colon
T-47D breast = tested on: T-47D breast
TK-10 renal = tested on: TK-10 renal
U251 CNS = tested on: U251 CNS
UACC-257 melanoma = tested on: UACC-257 melanoma
UACC-62 melanoma = tested on: UACC-62 melanoma
UO-31 renal = tested on: UO-31 renal

Measured: TGI

O=C(O)CSc1ccn(Cc2ccccc2)c1
> 100 µM: all assays above
